In US6635629B2, “3-nitrogen-6,7-dioxygen steroids and uses related thereto” (Inflazyme Pharmaceuticals Ltd., priority 2000, dated 2003):
≈ marks a conversion by molar mass, not a printed value.

Experiments:
[1] = tested on: rat mast cell line (RBL-2H3); experiment: Antigen-induced release of hexosaminidase from a rat mast cell line (RBL-2H3); format: cell-based; settings: inhibition of DNP-HSA antigen-induced hexosaminidase release; tested at 0.3, 3, 10 and 30 μM; read-out: Hex IC50
Method: The anti-allergic effects of a compound of the present invention was evaluated by measuring its effect on antigen-induced secretion of hexosaminidase from a passively sensitized rat mast cell line. The ability of a test compound to inhibit the release of mast cell granule contents, e.g., histamine and hexosaminidase, is indicative of the anti-allergy and/or anti-asthma activity of the compound. Hexosaminidase is released from the mast cell granule along with histamine and other mediators during antigen challenge. The test is performed as follows.
RBL-2H3 cells are grown in culture and passively sensitized for 1 hour at 37° C. to dinitrophenol (DNP) using anti-human-DNP (IgE). Cells are incubated with test compound for 30 minutes at 37° C. and stimulated with 0.5 μg/ml DNP-HSA (antigen) for 30 minutes. Aliquots of the supernatant are removed and used to measure the amount of hexosaminidase released during challenge with the antigen. […] The effect of each test compound is determined as a percentage of the antigen-induced response (minus background release) obtained in the presence of DMSO alone. These values are used to determine the degrees of inhibition of antigen-induced hexosaminidase release from the cells.

Jurkat clone E6.1 cells = experiment: Antigen-induced (anti-CD3 mAb) calcium flux in Jurkat clone E6.1 cells; format: cell-based; settings: 20 μM; anti-CD3 mAb 4 μg/mL; Fura 2AM
Text: Elevation of cytoplasmic calcium concentration is a common and crucial event which follows the activation of many types of cell surface receptors. Increases in intracellular calcium that occur following agonist activation of inositol lipid hydrolysis are the results of calcium release from the endoplasmic reticulum and the influx of calcium through the plasma membrane. Increases in cytosolic calcium concentration are involved in many important cellular responses in the inflammatory process including adhesion, motility, gene expression, proliferation, and degranulation. Changes in intracellular calcium centrations can affect both short and long term cellular responses. An assay method to evaluate a test compound's impact on calcium flux is provided as follows.
The resulting supernatants are discarded and each pellet is washed in 10 mL HBSS. Cell suspensions are accumulated and centrifuged for 5 minutes at 900 RPM to form a cell pellet. The resulting supernatant is discarded and the pellet is resuspended in HBSS at 1×10^7 cells/mL. The cell suspension is transferred to a 20 mm petri dish and incubated at 37° C., 5% CO2 for 20 minutes.
One volume of Fura 2AM is mixed to one volume of detergent Pluronic F127. Cells are labeled with 4 μL of probe solution to each mL of cell suspension. The petri dish is wrapped in aluminum foil to protect from light and placed on a plate shaker for 30 minutes at room temperature.
The following steps are done in the laminar flow hood with the fluorescent lights turned off. The petri dish is removed from the shaker and the labeled cell suspension is transferred to a 15 mL conical tube and washed twice with HBSS as above. The cell pellet is resuspended in 12 mL HBSS and left wrapped in foil for 30 minutes at room temperature. The labeled cell suspension is aliquoted (100 μL/well) into a Dynex 96 well white opaque tissue culture plate. […] Selected compounds were tested for dose related activity. Test samples and activator (anti—CD3 mAb at final concentration of 4 μg/mL, PharMingen) are added manually (50 μL), such that the minimum time to acquire the first data point after stimulation is approximately 30 seconds. The calcium influx response to anti-CD3 mAb is measured as an “end point” assay. The entire plate is read in 100 seconds using a kinetic of 1 second per well.
The plate is read before the addition of anti-CD3 to monitor non-specific effect of samples/drugs. Fluorescence emission is measured at 510 nm with excitation alternating between 340 and 380 every second using an excitation/emission filter pair. Data from these dual wavelengths are represented as a ratio of 2 excitations wavelengths. This ratio is independent of intracellular dye and cell concentrations, enabling real comparison between experiments.

[2] = tested on: sensitized Brown Norway rats; experiment: Ovalbumin-induced accumulation of inflammatory cells in lung lavage fluid of sensitized Brown Norway rats; format: in vivo, rat; settings: p.o.
Method: The ability of a compound to inhibit the allergen-induced accumulation of inflammatory cells such as eosinophils and neutrophils in the lavage fluid obtained from sensitized animals is indicative of that compound's anti-asthma activity. […] The test is conducted as follows.
Male Brown Norway rats are sensitized to ovalbumin by single intraperitoneal injection of 1 mg ovalbumin adsorbed to 100 mg A(OH)3 (alum) in 1 ml sterile saline (saline control rats receive only sterile saline) on day 1, and allowed to sensitize until day 21. […] Rats are challenged with 0.5% ovalbumin in saline generated using a Devillbis nebulizer for 60 min on day 21.
Forty-eight hrs after challenge, animals are sacrificed with an overdose of intraperitoneally-delivered sodium pentobarbitol and the lungs are lavaged with cold 2×7 ml phosphate buffered saline. The recovered lavage fluid is placed on ice. The bronchoalveolar lavage fluid is centrifuged and the supernatant removed. The pellet is resuspended in phosphate buffered saline at 4° C. Cytospins are prepared and stained for differentiation and enumeration of cell types.
Test compound was administered in 300 μl corn oil (Tables 7 and 8) or water (Table 9), which were used as vehicles. Control animals received 300 μl corn oil or water alone, i.e., no drug. […] A negative value in Table 7, 8, or 9 indicates an exacerbation of the effect over the control animal.

[3] = Pharmacokinetics in the rat; format: in vivo; settings: plasma; for bioavailability: po
[4] = Pharmacokinetics in the monkey; format: in vivo; settings: plasma; for bioavailability: po
physchem = settings: water
mouse ear edema = experiment: Irritant-induced (phorbol 12-myristate 13-acetate) mouse ear edema; format: in vivo; settings: 15 mg/kg orally in 45% β-cyclodextrin in saline; 3 hours after PMA; compared to control animals
Method: A number of mice are uniquely identified by placing a mark with an indelible marker on their tail. Mice are dosed orally with 15 mg/kg test compound in 100 μl of 45% β-cyclodextrin in saline. Mice are briefly anaesthesized with 2% halothane, and 2 μg of phorbol 12-myristate 13-acetate in 25 μl of acetone is applied to the inner and outer sides of the left ear of the mouse. Acetone is applied to the right ear of the mouse in the same manner to serve as a vehicle control. Control animals receive the same treatment but without any test compound. After 3 hours, mice are sacrificed by cervical dislocation, and a standard sized biopsy is excised from the ears and weighed to the nearest 1/10th of a mg. Data are analyzed by taking the difference of each left ear from the right ear, and then calculating the % inhibition of edema by (((mean Rx/mean irritant))×100)-100.
For example, compound 83 inhibits irritant-induced mouse ear edema by 38% compared to control animals.

[5] = Metabolic stability in human liver S9 fractions; format: in vitro ADME; settings: human, 10 μM, pH 7
Text: The therapeutic effectiveness of a test compound can be often directly related to its metabolic stability in vivo. The majority of known, marketed drugs are metabolized by a group of enzymes known as P450 enzymes. The S9 fraction of human liver contains all the P450 enzymes and also cytoplasmic enzymes that may be involved in the metabolism of new chemical entities. Metabolism in vitro using human S9 fractions is a standard assay to evaluate relative metabolic stability of new compounds. The test is performed as follows.
Reagents are thawed on ice and combined to make up a Master Mix as follows: Potassium phosphate (100 mM, pH 7), G6P (0.25 mM), G6PDH (2 U/ml), NADPH (1 mM), UDP (0.25 mM), APPS (0.25 mM), and S9 fraction (2 mg/ml). A volume of 498 μl of the Master mix is dispensed into each microcentrifuge tube. A volume of 2 μl of 2.5 mM test compound (final concentration of 10 μM) is dispensed into the center of the lid of the appropriate tube, and the lids gently closed to prevent mixing. Synchronous combination of test compound and master mix is achieved by simultaneous ten times inversion of the tubes, which are then incubated at 37° C. and shaken at 150 rpm for the appropriate incubation times. While incubation is in progress, all 0 time samples are mixed individually by three times inversion followed by the immediate addition of 500 μl ice cold acetonitrile with three times inversion to stop the reaction. Immediately after each 15 minutes and 30 minutes incubation is complete, ice cold acetonitrile is added to each tube and the tubes mixed by three times inversion. All sample tubes are incubated at −80° C. for a minimum of 15 minutes, thawed and remixed by inversion. Aliquots of 650 μl are transferred to Chromatographic Specialties micro-spin filter system tubes (0.2 μm nylon membrane, C618505) and centrifuged at 13,000 rpm for 48 seconds. The sample filtrates are stored at −80° C.
Sample filtrates are analyzed on LCMS, and percent remaining after 15 and 30 minute incubation is calculated relative to the 0 minute incubation.
The metabolic stability of various compounds are summarized in Table 10 as the percent remaining after 15 or 30 minutes incubation with human liver S9 fractions.

[6] = 0.1 mg/kg, 4 days qd, water vehicle
[7] = 0.3 mg/kg, 4 days qd, water vehicle
[8] = 1 mg/kg, 4 days qd, water vehicle
[9] = 5 mg/kg/day for 4 days, corn oil vehicle, relative to control animals
[10] = 0.03 mg/kg, 4 days qd, water vehicle

SMILES	% inhibition of eosinophils [2, 6]	% inhibition of lymphocytes [2, 6]	% inhibition of neutrophils [2, 6]	% inhibition of eosinophils [2, 7]	% inhibition of lymphocytes [2, 7]	% inhibition of neutrophils [2, 7]	% inhibition of eosinophils [2, 8]	% inhibition of lymphocytes [2, 8]	% inhibition of neutrophils [2, 8]	% inhibition of eosinophils [2, 9]	% inhibition of lymphocytes [2, 9]	% inhibition of neutrophils [2, 9]	half-life [3]	bioavailability [3]	half-life [4]	bioavailability [4]	solubility (physchem; solubility at room temperature)	also measured
C=C1CCC2C3C(CC[C@]12C)[C@@]1(C)CC[C@H](N)CC1[C@@H](O)[C@@H]3O (stereo partly shown) [Compound 89]	35%	2%	25%	80%	70%	72%	71%	6%	66%	57%	64%	60%	7.5 h	~100%	15 h	25 to 30%	~30 mg/mL (≈ 93.9 mM)	IC50 [1]: 11.5 µM; Calcium (% inhibition at 20 μM) (Jurkat clone E6.1 cells): 15.0%; solubility (physchem; solubility in water): > 100 mg/mL
C/C=C1/CCC2C3C(CC[C@]12C)[C@@]1(C)CC[C@H](N)CC1[C@@H](O)[C@@H]3O (stereo partly shown) [Compound 28]	29%	50%	−10%	71%	85%	66%	60%	70%	41%	85%	124%	87%	7.5 h	~100%	15 h	25 to 30%	~30 mg/mL (≈ 90 mM)	% inhibition of eosinophils [2, 10]: 5%; % inhibition of lymphocytes [2, 10]: −5%; % inhibition of neutrophils [2, 10]: −26%
C/C=C1/CCC2C3C(CC[C@]12C)[C@@]1(C)CC[C@H](N)CC1[C@@H](O)[C@@H]3O (stereo partly shown) [Compound 83]										67%	38%	34%						inhibition of irritant-induced mouse ear edema (mouse ear edema): 38%; % remaining after 15 min ([5]; s9, 15 min): 92 ± 19%; % remaining after 30 min ([5]; s9, 30 min): 91 ± 21%
